Values joined by “and” are separate entries in the source; they are usually repeats but may differ in a detail not shown here. Equal entries are not always repeated.
Experiments:
Format in all cases: cell-based, human
LNCaP-CDK7-D97N cells = assay: Growth assay (SRB), LNCaP CDK7-D97N knock-in; conditions: for % Growth: LNCaP CDK7 D99N
Description: (§1) To determine the IC50 of drug treatments on growth, cells were seeded in 96-well culture plates. Two days after seeding, the cells were treated with increasing concentrations of drugs and incubated for 4 days. Cell number was determined using the SRB assay (Skehan et al, [1990]), and IC50 values were calculated using non-linear regression curve fitting in GraphPad Prism v10. For all other growth experiments, cells were seeded into 96-well plates, and appropriate drugs were added 2 days after seeding. Cells were then incubated in an IncuCyte Zoom live-cell imager, with cell confluency measured every 6 h. Cell doubling times were determined by non-linear curve fitting (exponential growth equation) in GraphPad Prism v10.
(§2) Alt-R^TM S.p. Cas9 nuclease V3, Alt-R CRISPR-Cas9 crRNA, TracrRNA and the donor templates were obtained from Integrated DNA Technologies. […] Cells were treated with 0.7 µM of Alt-R HDR Enhancer V2 to improve HRD efficiency. Sequences of the CRISPRs in the crRNA and the donor templates are shown in the Reagents and tools table. Donor templates were designed to include non-coding substitutions to aid genome DNA PCR for identifying knock-in events and to facilitate cloning; these substitutions are noted in the Reagents and tools table.

MCF7-CDK7-D97N cells = assay: Growth assay (SRB), MCF7 CDK7-D97N knock-in; conditions: for % Growth: MCF7 CDK7 D99N, biological reps
Description: as §1, §2

MCF7 cells = assay: Growth assay (SRB), MCF7; conditions: for % Growth: biological reps
Description: as §1

22Rv1-SamR cells = assay: Growth assay (SRB), Samuraciclib-resistant 22Rv1; conditions: for % Growth: 22Rv1 SamR, 4 days, biological reps
Description: as §1

LNCaP cells = assay: Growth assay (SRB), LNCaP
Description: as §1

22Rv1-CDK7-D97N cells = assay: Growth assay (SRB), 22Rv1 CDK7-D97N knock-in pool; conditions: for % Growth: 22Rv1 CDK7 D99N
Description: as §1, §2

22Rv1 cells = assay: Growth assay (SRB), 22Rv1
Description: as §1

IC50 (MCF7-CDK7-D97N cells; MCF7-CDK7-D97N, 4 days, SRB): 8 nM
IC50 (MCF7 cells; 4 days, SRB): 5.5 nM
Resistance (Fold), fold increase in IC50 of 22Rv1-SamR relative to 22Rv1 (22Rv1-SamR cells; 22Rv1-SamR vs 22Rv1): 2.0 fold
SMILES: C=CC(=O)Nc1ccc(C(=O)Nc2[nH]nc3c2CN(C(=O)N[C@H](CN(C)C)c2ccccc2)C3(C)C)cc1 [YKL-5-124]
% Growth (LNCaP-CDK7-D97N cells; Log10 Conc. (nM) 0.09): 95.98% and 86.14%
% Growth (LNCaP-CDK7-D97N cells; Log10 Conc. (nM) 0.69): 91.96% and 46.53%
% Growth (LNCaP-CDK7-D97N cells; Log10 Conc. (nM) -0.52): 97.82% and 101.86%
% Growth (LNCaP-CDK7-D97N cells; Log10 Conc. (nM) -1.12): 92.55% and 85.18%
Sensitivity in growth assays (LNCaP-CDK7-D97N cells; LNCaP-CDK7-D97N vs parental): remaining sensitive
Resistance (Fold) (MCF7-CDK7-D97N cells; MCF7-CDK7-D97N vs MCF7 WT): 1.45 fold
% Growth (MCF7-CDK7-D97N cells; Log10 Conc. (nM) 0.09, 4 days): 94.47% and 108.04% and 95.31% and 94.01%
% Growth (MCF7-CDK7-D97N cells; Log10 Conc. (nM) 0.69, 4 days): 69.10% and 46.95% and 78.88% and 82.06%
% Growth (MCF7-CDK7-D97N cells; Log10 Conc. (nM) -0.52, 4 days): 98.82% and 155.20% and 98.59% and 96.08%
% Growth (MCF7-CDK7-D97N cells; Log10 Conc. (nM) -1.12, 4 days): 96.88% and 112.86% and 97.89% and 98.06%
% Growth (MCF7 cells; Log10 Conc. (nM) 0.09, 4 days): 84.50% and 79.80% and 95.09% and 95.13%
% Growth (MCF7 cells; Log10 Conc. (nM) -0.52, 4 days): 99.55% and 100.47% and 99.34% and 100.40%
% Growth (MCF7 cells; Log10 Conc. (nM) -1.12, 4 days): 92.16% and 94.11% and 96.62% and 97.54%
Sensitivity in growth assays (22Rv1-SamR cells; 22Rv1-SamR): remained sensitive
% Growth (22Rv1-SamR cells; Log10 Conc. (nM) 0.09): 83.75% and 87.25%
% Growth (22Rv1-SamR cells; Log10 Conc. (nM) 0.69): 68.41% and 67.61%
% Growth (22Rv1-SamR cells; Log10 Conc. (nM) 1.29): 30.25% and 41.41%
% Growth (22Rv1-SamR cells; Log10 Conc. (nM) 1.89): -7.69% and -2.73%
% Growth (22Rv1-SamR cells; Log10 Conc. (nM) 2.49): -11.43% and -7.53%
% Growth (22Rv1-SamR cells; Log10 Conc. (nM) 3.10): -11.82% and -8.43%
% Growth (22Rv1-SamR cells; Log10 Conc. (nM) 3.70): -15.22% and -10.53%
% Growth (22Rv1-SamR cells; Log10 Conc. (nM) -0.52): 93.15% and 99.90%
% Growth (22Rv1-SamR cells; Log10 Conc. (nM) -1.12): 93.43% and 95.60%
% Growth (LNCaP cells; Log10 Conc. (nM) 0.09): 110.86% and 92.81%
% Growth (LNCaP cells; Log10 Conc. (nM) 0.69): 85.55% and 79.81%
% Growth (LNCaP cells; Log10 Conc. (nM) 3.70): -11.67% and -9.39%
% Growth (LNCaP cells; Log10 Conc. (nM) -0.52): 109.97% and 100.05%
% Growth (LNCaP cells; Log10 Conc. (nM) -1.12): 106.79% and 104.82%
Sensitivity in growth assays (22Rv1-CDK7-D97N cells; 22Rv1-CDK7-D97N vs parental): remaining sensitive
% Growth (22Rv1-CDK7-D97N cells; Log10 Conc. (nM) 0.09): 95.04% and 95.37%
% Growth (22Rv1-CDK7-D97N cells; Log10 Conc. (nM) 0.69): 93.89% and 97.25%
% Growth (22Rv1-CDK7-D97N cells; Log10 Conc. (nM) 1.29): 85.36% and 88.43%
% Growth (22Rv1-CDK7-D97N cells; Log10 Conc. (nM) 1.89): 88.25% and 90.69%
% Growth (22Rv1-CDK7-D97N cells; Log10 Conc. (nM) 2.49): 93.92% and 88.27%
% Growth (22Rv1-CDK7-D97N cells; Log10 Conc. (nM) 3.10): 65.35% and 66.63%
% Growth (22Rv1-CDK7-D97N cells; Log10 Conc. (nM) 3.70): 34.13% and 30.83%
% Growth (22Rv1-CDK7-D97N cells; Log10 Conc. (nM) -0.52): 104.35% and 94.29%
% Growth (22Rv1-CDK7-D97N cells; Log10 Conc. (nM) -1.12): 96.98% and 94.29%
% Growth (22Rv1 cells; 22Rv1, Log10 Conc. (nM) 0.09): 59.88% and 63.28%
% Growth (22Rv1 cells; 22Rv1, Log10 Conc. (nM) 0.69): 24.70% and 25.33%
% Growth (22Rv1 cells; 22Rv1, Log10 Conc. (nM) 1.29): 14.01% and 10.35%
% Growth (22Rv1 cells; 22Rv1, Log10 Conc. (nM) 1.89): 12.24% and 10.17%
% Growth (22Rv1 cells; 22Rv1, Log10 Conc. (nM) 2.49): 11.07% and 8.36%
% Growth (22Rv1 cells; 22Rv1, Log10 Conc. (nM) 3.10): 1.88% and 3.47%
% Growth (22Rv1 cells; 22Rv1, Log10 Conc. (nM) 3.70): 0.13% and -0.45%
% Growth (22Rv1 cells; 22Rv1, Log10 Conc. (nM) -0.52): 83.49% and 90.26%
% Growth (22Rv1 cells; 22Rv1, Log10 Conc. (nM) -1.12): 94.90% and 93.56%
% Growth (22Rv1 cells; 22Rv1, Log10 Conc. (nM) 0.09, 4 days, biological reps): 93.20% and 88.05%
% Growth (22Rv1 cells; 22Rv1, Log10 Conc. (nM) 0.69, 4 days, biological reps): 85.45% and 77.80%
% Growth (22Rv1 cells; 22Rv1, Log10 Conc. (nM) 1.29, 4 days, biological reps): 56.44% and 44.90%
% Growth (22Rv1 cells; 22Rv1, Log10 Conc. (nM) 1.89, 4 days, biological reps): 5.80% and -0.07%
% Growth (22Rv1 cells; 22Rv1, Log10 Conc. (nM) 2.49, 4 days, biological reps): -4.12% and -6.31%
% Growth (22Rv1 cells; 22Rv1, Log10 Conc. (nM) 3.10, 4 days, biological reps): -6.49% and -7.67%
% Growth (22Rv1 cells; 22Rv1, Log10 Conc. (nM) 3.70, 4 days, biological reps): -6.63% and -7.61%
% Growth (22Rv1 cells; 22Rv1, Log10 Conc. (nM) -0.52, 4 days, biological reps): 98.36% and 93.94%
% Growth (22Rv1 cells; 22Rv1, Log10 Conc. (nM) -1.12, 4 days, biological reps): 96.18% and 94.83%

— article PMC12528448, “Resistance to CDK7 inhibitors directed by acquired mutation of a conserved residue in cancer cells” (The EMBO Journal, 2025)
